26 molecules from patent publication US20240025906A1 (NEURON23, INC., priority 2022, published 2024) can be followed below.

The structures appear in SMILES notation.

In assay [1] the target is T1, TYK2 JH2 (Homo sapiens, UniProt P29597).
T1 construct: purchased DiscoverX (KINOMEscan KdELECT service); host or cells: E. coli BL21-derived (T7 phage display) or HEK-293
The experiment in a line: TYK2 JH2 binding assay (KINOMEscan KdELECT competitive binding). The note with it: TYK2 JH2 domain, DiscoverX KINOMEscan KdELECT (Assay A); read-out: Biochemical TYK2_DiscoverX_JH2_BND_Kd. Put shortly: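 Competition binding, KdELECT format. Kinase (phage-tagged, E. coli BL21-derived host; or HEK-293, DNA-tagged) + ligand-coated streptavidin beads + cpd, 1 h RT, final DMSO 0.9%. Wash, elute 30 min with 0.5 μM non-biotinylated ligand; qPCR readout. Kd: 11-pt, 3-fold series.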

The subject of assay [2] is JAK1/TYK2 pSTAT5 (Tyr694/699) in THP-1 cell line. Put plainly: IFNa-stimulated JAK1/TYK2 pSTAT5 (Tyr694/699) inhibition cellular assay, AlphaLISA. To be noted: Homo sapiens; THP-1 cells, IFNa-stimulated, AlphaLISA (Assay B); read-out: Cellular_THP1_IFNa-pSTATS_TYK2. It counts as cell-based. Put shortly:
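An eight-point 6-fold titration of compound (0.04–10000 nM final) is given to THP-1 cells for 1 h before 30 min of IFNa exposure. Phospho-STAT5 is read by AlphaLISA at 615 nm. IC50 values are derived by logistic regression with bottom set to 0 and Hill slope set to −1.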
On the technique in general: In Alpha technology, singlet oxygen from a donor bead excites a nearby acceptor bead.

T1 sequence (P29597 589-875 limits assumed): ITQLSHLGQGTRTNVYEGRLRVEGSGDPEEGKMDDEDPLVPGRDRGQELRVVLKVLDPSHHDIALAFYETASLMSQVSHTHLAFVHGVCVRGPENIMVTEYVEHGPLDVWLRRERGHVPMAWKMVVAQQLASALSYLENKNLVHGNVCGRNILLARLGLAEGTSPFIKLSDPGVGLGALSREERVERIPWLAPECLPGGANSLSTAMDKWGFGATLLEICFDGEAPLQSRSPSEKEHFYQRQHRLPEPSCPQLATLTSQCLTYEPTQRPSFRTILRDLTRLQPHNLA

For `CNc1ncc(-c2nc3cc(N4CCOC(C(F)F)C4)ccc3o2)c2cc(NC(=O)C3CC3)ncc12` (stereo not shown) [Example 329, N-(5-(5-(2-(difluoromethyl)morpholino)benzo[d]oxazol-2-yl)-8-(methylamino)-2,7-naphthyridin-3-yl)cyclopropanecarboxamide], the Kd in assay [1] is at most 100 nM. The IC50 in assay [2] is at most 500 nM.
Turning to `CNc1ncc(-c2nc3cc(N4CCOC(C(C)(F)F)C4)ccc3o2)c2cc(NC(=O)C3CC3)ncc12` (stereo not shown) [Example 330, N-(5-(5-(2-(1,1-difluoroethyl)morpholino)benzo[d]oxazol-2-yl)-8-(methylamino)-2,7-naphthyridin-3-yl)cyclopropanecarboxamide], the Kd in assay [1] was at most 100 nM. Moreover, the IC50 in assay [2] was at most 500 nM.
As for `CNc1ncc(-c2nc3cc(N4CCOC(CO)C4)ccc3o2)c2cc(NC(=O)C3CC3)ncc12` (stereo not shown) [Example 333, N-(5-(5-(2-(hydroxymethyl)morpholino)benzo[d]oxazol-2-yl)-8-(methylamino)-2,7-naphthyridin-3-yl)cyclopropanecarboxamide], the Kd in assay [1] was at most 100 nM. Moreover, in assay [2], the IC50 is at most 500 nM.
Consider `C=C1COCCN(c2ccc3oc(-c4cnc(NC)c5cnc(NC(=O)C6CC6)cc45)nc3c2)C1` [Example 334, N-(8-(methylamino)-5-(5-(6-methylene-1,4-oxazepan-4-yl)benzo[d]oxazol-2-yl)-2,7-naphthyridin-3-yl)cyclopropanecarboxamide], for which the Kd in assay [1] is at most 100 nM. Moreover, the IC50 in assay [2] is at most 500 nM.
Take `CNc1ncc(-c2nc3cc(N4CCOCC(C)C4)ccc3o2)c2cc(NC(=O)C3CC3)ncc12` (stereo not shown) [Example 335, N-(5-(5-(6-methyl-1,4-oxazepan-4-yl)benzo[d]oxazol-2-yl)-8-(methylamino)-2,7-naphthyridin-3-yl)cyclopropanecarboxamide]: the Kd in assay [1] was at most 100 nM. In addition, the IC50 in assay [2] was at most 500 nM.
The corresponding values for `CNc1ncc(-c2nc3cc(OCC4COC4)ccc3o2)c2cc(NC(=O)C3CC3)ncc12` [Example 336, N-(8-(methylamino)-5-(5-(oxetan-3-ylmethoxy)benzo[d]oxazol-2-yl)-2,7-naphthyridin-3-yl)cyclopropanecarboxamide] are at most 100 nM and at most 500 nM.
For `CNc1ncc(-c2nc3cc(OCC4CCC4)ccc3o2)c2cc(NC(=O)C3CC3)ncc12` [Example 337, N-(5-(5-(cyclobutylmethoxy)benzo[d]oxazol-2-yl)-8-(methylamino)-2,7-naphthyridin-3-yl)cyclopropanecarboxamide], in assay [1], the Kd was at most 100 nM. The IC50 in assay [2] was over 500 nM.
Consider `CNc1ncc(-c2nc3cc(OCC#N)ccc3o2)c2cc(NC(=O)C3CC3)ncc12` [Example 338, N-(5-(5-(cyanomethoxy)benzo[d]oxazol-2-yl)-8-(methylamino)-2,7-naphthyridin-3-yl)cyclopropanecarboxamide], for which the Kd in assay [1] is at most 100 nM. Moreover, the IC50 in assay [2] is at most 500 nM.
Taken in the same sequence, the figures for `CNc1ncc(-c2nc3cc(OCF)ccc3o2)c2cc(NC(=O)C3CC3)ncc12` [Example 339, N-(5-(5-(fluoromethoxy)benzo[d]oxazol-2-yl)-8-(methylamino)-2,7-naphthyridin-3-yl)cyclopropanecarboxamide] were at most 100 nM and at most 500 nM.
Turning to `CNc1ncc(-c2nc3cc(Oc4ccncc4)ccc3o2)c2cc(NC(=O)C3CC3)ncc12` [Example 340, N-(8-(methylamino)-5-(5-(pyridin-4-yloxy)benzo[d]oxazol-2-yl)-2,7-naphthyridin-3-yl)cyclopropanecarboxamide], the Kd in assay [1] was at most 100 nM. Moreover, in assay [2], the IC50 is at most 500 nM.
For the molecule `CNc1ncc(-c2nc3cc(Oc4ccn(C)n4)ccc3o2)c2cc(NC(=O)C3CC3)ncc12` [Example 341, N-(5-(5-((1-methyl-1H-pyrazol-3-yl)oxy)benzo[d]oxazol-2-yl)-8-(methylamino)-2,7-naphthyridin-3-yl)cyclopropanecarboxamide], the Kd in assay [1] is at most 100 nM. Further, the IC50 in assay [2] is at most 500 nM.
As to `CNc1ncc(-c2nc3cc(C4=CCOCC4)ccc3o2)c2cc(NC(=O)C3CC3)ncc12` [Example 342, N-(5-(5-(3,6-dihydro-2H-pyran-4-yl)benzo[d]oxazol-2-yl)-8-(methylamino)-2,7-naphthyridin-3-yl)cyclopropanecarboxamide], in assay [1], the Kd is at most 100 nM. Also, in assay [2], the IC50 is at most 500 nM.
For the molecule `CNc1ncc(-c2nc3cc(C4CCCO4)ccc3o2)c2cc(NC(=O)C3CC3)ncc12` (stereo not shown) [Example 343, N-(8-(methylamino)-5-(5-(tetrahydrofuran-2-yl)benzo[d]oxazol-2-yl)-2,7-naphthyridin-3-yl)cyclopropanecarboxamide], the Kd in assay [1] was at most 100 nM. For the same molecule, in assay [2], the IC50 was at most 500 nM.
For `CNc1ncc(-c2nc3cc(CCC#N)ccc3o2)c2cc(NC(=O)C3CC3)ncc12` [Example 344, N-(5-(5-(2-cyanoethyl)benzo[d]oxazol-2-yl)-8-(methylamino)-2,7-naphthyridin-3-yl)cyclopropanecarboxamide], the Kd in assay [1] is at most 100 nM. In assay [2], the IC50 was at most 500 nM.
`CNc1ncc(-c2nc3cc(N4CCOCC4)ccc3o2)c2cc(NC(=O)C3CC3)ncc12` [Example 345, N-(8-(methylamino)-5-(5-morpholinobenzo[d]oxazol-2-yl)-2,7-naphthyridin-3-yl)cyclopropanecarboxamide]: in assay [1], the Kd was at most 100 nM. Further, the IC50 in assay [2] was at most 500 nM.
Take `CNc1ncc(-c2nc3cc(OC4CCC4C(C)(C)OC)ccc3o2)c2cc(NC(=O)C3CC3)ncc12` (stereo not shown) [Example 346, N-(5-(5-(2-(2-methoxypropan-2-yl)cyclobutoxy)benzo[d]oxazol-2-yl)-8-(methylamino)-2,7-naphthyridin-3-yl)cyclopropanecarboxamide]: the Kd in assay [1] was at most 100 nM. Also, the IC50 in assay [2] is at most 500 nM.
Taken in the same sequence, the figures for `CNc1ncc(-c2nc3cc(O[C@H]4C[C@@H](COC)C4)ccc3o2)c2cc(NC(=O)C3CC3)ncc12` [Example 347, N-(5-(5-((1s,3s)-3-(methoxymethyl)cyclobutoxy)benzo[d]oxazol-2-yl)-8-(methylamino)-2,7-naphthyridin-3-yl)cyclopropanecarboxamide] were at most 100 nM and at most 500 nM.
The corresponding values for `CNc1ncc(-c2nc3cc(O[C@H]4C[C@H](COC)C4)ccc3o2)c2cc(NC(=O)C3CC3)ncc12` [Example 348, N-(5-(5-((1r,3r)-3-(methoxymethyl)cyclobutoxy)benzo[d]oxazol-2-yl)-8-(methylamino)-2,7-naphthyridin-3-yl)cyclopropanecarboxamide] are at most 100 nM and at most 500 nM.
The corresponding values for `CNc1ncc(-c2nc3cc(OCC45CCCN4CCC5)ccc3o2)c2cc(NC(=O)C3CC3)ncc12` [Example 349, N-(8-(methylamino)-5-(5-((tetrahydro-1H-pyrrolizin-7a(5H)-yl)methoxy)benzo[d]oxazol-2-yl)-2,7-naphthyridin-3-yl)cyclopropanecarboxamide] are at most 100 nM and at most 500 nM.
Turning to `CNc1ncc(-c2nc3cc(O[C@@H](C)COC)ccc3o2)c2cc(NC(=O)C3CC3)ncc12` [Example 350, (S)—N-(5-(5-((1-methoxypropan-2-yl)oxy)benzo[d]oxazol-2-yl)-8-(methylamino)-2,7-naphthyridin-3-yl)cyclopropanecarboxamide], the Kd in assay [1] is at most 100 nM. For the same molecule, the IC50 in assay [2] is at most 500 nM.
`CNc1ncc(-c2nc3cc(O[C@H](C)COC)ccc3o2)c2cc(NC(=O)C3CC3)ncc12` [Example 351, (R)—N-(5-(5-((1-methoxypropan-2-yl)oxy)benzo[d]oxazol-2-yl)-8-(methylamino)-2,7-naphthyridin-3-yl)cyclopropanecarboxamide]: in assay [1], the Kd is at most 100 nM. In addition, the IC50 in assay [2] is at most 500 nM.
In the case of `CNc1ncc(-c2nc3cc(OCC(C)(C)N4CCOCC4)ccc3o2)c2cc(NC(=O)C3CC3)ncc12` [Example 352, N-(5-(5-(2-methyl-2-morpholinopropoxy)benzo[d]oxazol-2-yl)-8-(methylamino)-2,7-naphthyridin-3-yl)cyclopropanecarboxamide], the Kd in assay [1] was at most 100 nM. Moreover, the IC50 in assay [2] is at most 500 nM.
Consider `CNc1ncc(-c2nc3cc(OCC[S+](C)[O-])ccc3o2)c2cc(NC(=O)C3CC3)ncc12` (stereo not shown) [Example 353, N-(8-(methylamino)-5-(5-(2-(methylsulfinyl)ethoxy)benzo[d]oxazol-2-yl)-2,7-naphthyridin-3-yl)cyclopropanecarboxamide], for which the Kd in assay [1] was at most 100 nM. In assay [2], the IC50 is at most 500 nM.
Regarding `CNc1ncc(-c2nc3cc(OCCS(C)(=O)=O)ccc3o2)c2cc(NC(=O)C3CC3)ncc12` [Example 354, N-(8-(methylamino)-5-(5-(2-(methylsulfonyl)ethoxy)benzo[d]oxazol-2-yl)-2,7-naphthyridin-3-yl)cyclopropanecarboxamide], in assay [1], the Kd is at most 100 nM. Moreover, in assay [2], the IC50 is at most 500 nM.
In the case of `CNc1ncc(-c2nc3ccc(N4CCOCC4)cc3o2)c2cc(NC(=O)C3CC3)ncc12` [Example 355, N-(8-(methylamino)-5-(6-morpholinobenzo[d]oxazol-2-yl)-2,7-naphthyridin-3-yl)cyclopropanecarboxamide], the Kd in assay [1] is at most 100 nM. Besides, the IC50 in assay [2] was at most 500 nM.
Turning to `CNc1ncc(-c2nc3cnccc3o2)c2cc(NC(=O)C3CC3)ncc12` [Example 356, N-(8-(methylamino)-5-(oxazolo[4,5-c]pyridin-2-yl)-2,7-naphthyridin-3-yl)cyclopropanecarboxamide], in assay [1], the Kd is at most 100 nM. The IC50 in assay [2] is at most 500 nM.
